# From patent publication US20210046071A1, “TETRACYCLIC COMPOUNDS AND THEIR SALTS, COMPOSITIONS, AND METHODS FOR THEIR USE” (Senhwa Biosciences, Inc., priority 2019, published 2021)
# Experiments:
# A7 = assay: Alamar Blue cell viability assay, A7; type: cell-based; settings: A7, Melanoma
# Protocol: (§1) The effect of Compound I on cell viability was assessed by Alamar Blue assay of metabolic activity in various cancer cell lines.
# HL60 = assay: Alamar Blue cell viability assay, HL60; type: cell-based; settings: Homo sapiens, HL-60; HL60, Leukemia
# Protocol: as §1
# NCI-H1299 = assay: Alamar Blue cell viability assay, NCI-H1299; type: cell-based; settings: Homo sapiens; NCI-H1299, Lung
# Protocol: as §1
# [1] = system: BRCA2 knockout tumor cells; assay: BRCA2 knockout tumor xenograft model; type: in vivo; settings: compared with isogenic wild type control cells
# BJ-hTERT = assay: Alamar Blue cell viability assay, BJ-hTERT; type: cell-based; settings: Normal
# Protocol: as §1
# MIA PaCa-2 = assay: Alamar Blue cell viability assay, MIA PaCa-2; type: cell-based; settings: Homo sapiens; MIA PaCa-2, Pancreatic
# Protocol: as §1
# MDA-MB-453 = assay: Alamar Blue cell viability assay, MDA-MB-453; type: cell-based; settings: Homo sapiens; MDA-MB-453, Breast
# Protocol: as §1
# CCD-1058Sk = assay: Alamar Blue cell viability assay, CCD-1058Sk; type: cell-based; settings: Normal
# Protocol: as §1
# EOL-1 = assay: Alamar Blue cell viability assay, EOL-1; type: cell-based; settings: Homo sapiens, EOL1; EOL-1, Leukemia
# Protocol: as §1
# Jurkat = assay: Alamar Blue cell viability assay, Jurkat; type: cell-based; settings: Homo sapiens, Leukemia
# Protocol: as §1
# A375 = assay: Alamar Blue cell viability assay, A375; type: cell-based; settings: Homo sapiens, A-375; A375, Melanoma
# Protocol: as §1
# COLO-205 = assay: Alamar Blue cell viability assay, COLO-205; type: cell-based; settings: Homo sapiens; COLO-205, Colon
# Protocol: as §1
# [2] = Dose escalation study in patients, toxicity and adverse events; type: in vivo, human
# Protocol: (§2) Pharmacokinetic studies and dose escalation studies were conducted in adult patients with metastatic, recurrent, locally, advanced, or unresectable solid malignancy (patients with histologically and/or cytologically confirmed solid malignancy), who received prior anti-cancer treatment(s) until disease progression, at 10 different dose levels of Compound I. Groups 1-7 were administered intravenously on days 1 and 8 of a 4-week cycle at 50, 100, 150, 200, 250, 325, and 475 mg/m^2 (lyophilized formulation), respectively. Groups 8-10 were administered intravenously on days 1,8, and 15 of a 4-week cycle at 325, 475, and 650 mg/m^2 (lyophilized formulation), respectively. Each patient received each dose over 1 hour by IV infusion on days described above.
# NCI-H460 = assay: Alamar Blue cell viability assay, NCI-H460; type: cell-based; settings: Homo sapiens; NCI-H460, Lung
# Protocol: as §1
# PC-3 = assay: Alamar Blue cell viability assay, PC-3; type: cell-based; settings: Homo sapiens; PC-3, Prostate
# Protocol: as §1
# [3] = system: multiple cancer cell lines; assay: Alamar Blue cell viability assay, multiple cancer cell lines; type: cell-based; settings: Table 1
# Protocol: as §1
# NCI-H520 = assay: Alamar Blue cell viability assay, NCI-H520; type: cell-based; settings: Homo sapiens; NCI-H520, Lung
# Protocol: as §1
# SEM cells = assay: Alamar Blue cell viability assay, SEM; type: cell-based; settings: Leukemia
# Protocol: as §1
# LNCaP = assay: Alamar Blue cell viability assay, LNCaP; type: cell-based; settings: Homo sapiens, Prostate
# Protocol: as §1
# Hs 605.T = assay: Alamar Blue cell viability assay, Hs 605.T; type: cell-based; settings: Breast
# Protocol: as §1
# RPMI-8226 = assay: Alamar Blue cell viability assay, RPMI-8226; type: cell-based; settings: Homo sapiens; RPMI-8226, Myeloma
# Protocol: as §1
# CCD-1068Sk = assay: Alamar Blue cell viability assay, CCD-1068Sk; type: cell-based; settings: Normal
# Protocol: as §1
# NK92mi = assay: Alamar Blue cell viability assay, NK92mi; type: cell-based; settings: Lymphoma
# Protocol: as §1
# MOLT-3 = assay: Alamar Blue cell viability assay, MOLT-3; type: cell-based; settings: Homo sapiens; MOLT-3, Leukemia
# Protocol: as §1
# BRCA12 deficient cells = assay: Toxicity against BRCA12 deficient cells; type: cell-based; settings: cell lines of different genetic backgrounds (colon, breast and ovary), mouse and human
# CCD-1096Sk = assay: Alamar Blue cell viability assay, CCD-1096Sk; type: cell-based; settings: Normal
# Protocol: as §1
# PANC-1 = assay: Alamar Blue cell viability assay, PANC-1; type: cell-based; settings: Homo sapiens; PANC-1, Pancreatic
# Protocol: as §1
# solid malignancy = assay: Dose escalation study in patients, best response / tumor shrinkage; type: in vivo, human
# Protocol: as §2
# The duration on therapy at each dose level for evaluable patients is depicted in FIG. 8.
# In the study described in Example 3, 18 patients were diagnosed with metastatic breast cancer. […] This study was conducted to evaluate predictive biomarkers of response to Compound I and to explore the relationship between germline HRD aberrations and outcomes of Compound I treatments.
# In the study described in Example 3, 12 patients harbored BRCA1 or BRCA2 mutation. From the same group of 12 patients harboring BRCA1 or BRCA2 mutation, 8 patients had breast cancer (FIG. 5). Of the 8 patients, 6 patient harbored BRCA2 mutation and had breast cancer (FIG. 6). In FIGS. 4-6, each bar represents an individual in a treatment Group as indicated by the Group number corresponding to the treatment Groups in Example 3.
# MDA-MB-231 = assay: Alamar Blue cell viability assay, MDA-MB-231; type: cell-based; settings: Homo sapiens; MDA-MB-231, Breast
# Protocol: as §1
# BT-474 = assay: Alamar Blue cell viability assay, BT-474; type: cell-based; settings: Homo sapiens; BT-474, Breast
# Protocol: as §1
# SR = assay: Alamar Blue cell viability assay, SR; type: cell-based; settings: Homo sapiens, Leukemia
# Protocol: as §1
# [4] = of the 40 patients treated, 34 discontinued
smiles,measurement,setting,value
"Cc1cnc(CNC(=O)c2c(=O)c3ccc(N4CCCN(C)CC4)nc3n3c2sc2ccccc23)cn1 [Compound I, 2-(4-Methyl-[1,4]diazepan-1-yl)-5-oxo-5H-7-thia-1,11b-diaza-benzo[c]fluorene-6-carboxylic acid (5-methyl-pyrazin-2-ylmethyl)-amide]",EC50,A7,23 nM
same,EC50,HL60,83 nM
same,EC50,NCI-H1299,55 nM
same,Activity in BRCA2 knockout tumor cells in a xenograft model,[1],wide therapeutic index of activity
same,EC50,BJ-hTERT,5170 nM
same,EC50,MIA PaCa-2,74 nM
same,EC50,MDA-MB-453,140 nM
same,EC50,CCD-1058Sk,4710 nM
same,EC50,EOL-1,3 nM
same,EC50,Jurkat,64 nM
same,EC50,A375,58 nM
same,EC50,COLO-205,96 nM
same,Serious adverse events (SAEs) considered related to Compound I,[2]; Groups 1-10,Three
same,Treatment-related AE: hand-foot syndrome,[2]; Groups 1-10,23%
same,Treatment-related AE: headache,[2]; Groups 1-10,10%
same,Treatment-related AE: mucositis,[2]; Groups 1-10,15%
same,Treatment-related AE: nausea,[2]; Groups 1-10,44%
same,Treatment-related AE: photosensitivity of the eyes,[2]; Groups 1-10,21%
same,Treatment-related AE: photosensitivity of the skin,[2]; Groups 1-10,59%
same,Treatment-related AE: rash,[2]; Groups 1-10,10%
same,Dose level toxicity (DLT),"[2]; Groups 1-10, 50 to 650 mg/m^2 IV",No dose level toxicity (DLT) were observed
same,Treatment-related non-DLT grade 3 photosensitivity events,"[2]; in Groups 1, 5, and 8-10, reversible",5
same,EC50,NCI-H460,38 nM
same,EC50,PC-3,1100 nM
same,Antiproliferative activity,[3],broad spectrum antiproliferative activity
same,EC50,NCI-H520,70 nM
same,EC50,SEM cells,18 nM
same,EC50,LNCaP,5500 nM
same,EC50,Hs 605.T,116 nM
same,EC50,RPMI-8226,68 nM
same,EC50,CCD-1068Sk,5070 nM
same,EC50,NK92mi,165 nM
same,EC50,MOLT-3,6 nM
same,Toxicity against BRCA12 deficient cells,BRCA12 deficient cells,specific toxicity
same,EC50,CCD-1096Sk,5260 nM
same,EC50,PANC-1,5000 nM
same,Response of a patient who harbored a PALB2 mutation,"solid malignancy; Group 10, 650 mg/m^2, CT scans, 6-month follow-up",partial response (PR)
same,Patients discontinued due to objective progressive disease,solid malignancy; [4],29
same,Patients discontinued due to symptomatic progression of disease,solid malignancy; [4],4
same,Patients with stable disease as best response for >4 cycles,"solid malignancy; of the 40 patients treated, 2 with breast cancer, 4 germline BRCA2, 2 somatic BRCA1/2",6 patients
same,Patients with confirmed partial response as best response,"solid malignancy; of the 40 patients treated, 3 with breast cancer, 2 germline BRCA2, 1 germline BRCA2 VUS, germline PALB2",4 patients
same,Outcome in 8 patients who had received prior PARP inhibitor therapy,solid malignancy; only 2 of them had BRCA2 mutations,all had early progression after ≤2 cycles
same,"Dose at which patients with BRCA2 mutation responded, tumor shrinkage observed",solid malignancy; patients with BRCA2 mutation,greater than or equal to 150 mg/m^2
same,EC50,MDA-MB-231,83 nM
same,EC50,BT-474,86 nM
same,EC50,SR,5 nM
